Laboratory results taken from ChEMBL document CHEMBL4828706, “Mechanistic Insights into the Leishmanicidal and Bactericidal Activities of Batroxicidin, a Cathelicidin-Related Peptide from a South American Viper (Bothrops atrox)” (J Nat Prod, 2021).
≈ marks a conversion by molar mass, not a printed value. Calls of active or inactive are those of the source. No cut-off for these calls is given here. Where a SMILES comes first, the peptide text is derived from it.

Assays:
Enterococcus faecalis = assay: Antibacterial activity against Enterococcus faecalis ATCC 29212 assessed as inhibition of bacterial growth by CLSI protocol based microdilution assay; format: functional
Staphylococcus aureus [1] = assay: Antibacterial activity against methicillin-resistant Staphylococcus aureus assessed as inhibition of bacterial growth by CLSI protocol based microdilution assay; format: functional
Cell membrane [2] = assay: Disruption of membrane integrity in Leishmania amazonensis promastigotes assessed as cell morphology deformation by measuring wrinkled patterns at 61.98 uM by Atomic force microscopy analysis; format: subcellular
Escherichia coli [3] = assay: Antibacterial activity against multidrug- resistant Escherichia coli assessed as inhibition of bacterial growth by CLSI protocol based microdilution assay; format: functional
Pseudomonas aeruginosa [4] = assay: Antibacterial activity against multidrug-resistant Pseudomonas aeruginosa assessed as inhibition of bacterial growth by CLSI protocol based microdilution assay; format: functional
Lipid bilayer [5] = assay: Induction of membrane destabilization in mammalian cell membrane mimic POPC:Chol (70:30) large unilamellar vesicle assessed as carboxyfluorescein leakage at MIC for Escherichia coli measured for 60 mins by fluorescence spectroscopy analysis
Lipid bilayer [6] = assay: Induction of membrane destabilization in bacterial cell membrane mimic POPC:POPG (80:20) large unilamellar vesicle assessed as carboxyfluorescein leakage at MIC for Escherichia coli measured for 60 mins by fluorescence spectroscopy analysis
[7] = Cytotoxicity against human HaCat cells assessed as cell growth inhibition measured after 48 hrs by MTT assay; format: cell-based
Staphylococcus aureus [8] = assay: Antibacterial activity against Staphylococcus aureus ATCC 29213 assessed as inhibition of bacterial growth by CLSI protocol based microdilution assay; format: functional
Cell membrane [9] = assay: Disruption of membrane integrity in Leishmania amazonensis promastigotes assessed as cell morphology deformation at 61.98 uM by Atomic force microscopy analysis; format: subcellular
Leishmania amazonensis [10] = assay: Antileishmanial activity against Leishmania amazonensis (MHOM/BR/73/M2269) promastigotes assessed as inhibition of parasite growth measured after 24 hrs by MTT assay; format: functional, organism-based; details: MHOM/BR/73/M2269, 24 h
Escherichia coli [11] = assay: Antibacterial activity against Escherichia coli ATCC 25922 assessed as inhibition of bacterial growth by CLSI protocol based microdilution assay; format: functional
Cell membrane [12] = assay: Induction of cell membrane permeabilization in Escherichia coli ATCC 25922 assessed as cell morphology distortion by measuring modifications on bacillary structure at 0.12 uM by Atomic force microscopy analysis; format: subcellular
Lipid bilayer [13] = assay: Binding affinity with Biomimetic membrane dodecylphosphocholine micelles by NMR analysis
Lipid bilayer [14] = assay: Binding affinity with Biomimetic membrane dodecylphosphocholine micelles by circular dichroism analysis
Leishmania amazonensis [15] = assay: Antileishmanial activity in Leishmania amazonensis amastigotes infected in Balb/c mouse peritoneal macrophages assessed as reduction in infection index measured after 24 hrs by Giemsa staining based assay; format: functional, organism-based; details: Peritoneal macrophage
Pseudomonas aeruginosa [16] = assay: Antibacterial activity against Pseudomonas aeruginosa ATCC 27853 assessed as inhibition of bacterial growth by CLSI protocol based microdilution assay; format: functional
[17] = Cytotoxicity against mouse macrophage J774 cells assessed as cell growth inhibition measured after 24 hrs by Prestoblue dye based fluorescence analysis
Cell membrane [18] = assay: Induction of cell membrane permeabilization in Escherichia coli ATCC 25922 assessed as cell morphology distortion by measuring modifications on bacillary structure at 0.23 uM by Atomic force microscopy analysis; format: subcellular
Cell membrane [19] = assay: Disruption of membrane integrity in Leishmania amazonensis promastigotes assessed as cell morphology deformation by measuring wrinkled patterns at 59.81 uM by Atomic force microscopy analysis; format: subcellular
Cell membrane [20] = assay: Disruption of membrane integrity in Leishmania amazonensis promastigotes at EC50 to 2 x EC50 measured after 24 hrs by SYTOX green staining based fluorescence assay; format: subcellular
Cell membrane [21] = assay: Disruption of membrane integrity in Leishmania amazonensis promastigotes assessed as cell morphology deformation at 59.81 uM by Atomic force microscopy analysis; format: subcellular
Escherichia coli [22] = assay: Antibacterial activity against Escherichia coli ATCC 2101123 assessed as inhibition of bacterial growth incubated for 18 hrs by CLSI protocol based microdilution assay; format: functional
Cell membrane [23] = assay: Induction of cell membrane permeabilization in Escherichia coli ATCC 25922 assessed as cell morphology distortion by measuring circular depressions along the bacterial surface at 0.47 uM by Atomic force microscopy analysis; format: subcellular
Cell membrane [24] = assay: Induction of cell membrane permeabilization in Escherichia coli ATCC 25922 assessed as cell morphology distortion by measuring alterations in cell shape at 0.47 uM by Atomic force microscopy analysis; format: subcellular
Leishmania amazonensis [25] = assay: Antileishmanial activity in Leishmania amazonensis amastigotes infected in Balb/c mouse peritoneal macrophages assessed as average parasitic charge per macrophage at 0.70 uM measured after 24 hrs by Giemsa staining based assay; format: functional; details: dose 0.7 µM
Escherichia coli [26] = assay: Antibacterial activity against Escherichia coli ATCC 1812446 assessed as inhibition of bacterial growth incubated for 18 hrs by CLSI protocol based microdilution assay; format: functional
Leishmania amazonensis [27] = assay: Antileishmanial activity in Leishmania amazonensis amastigotes infected in Balb/c mouse peritoneal macrophages assessed as average parasitic charge per macrophage at 1 uM measured after 24 hrs by Giemsa staining based assay; format: functional
Pseudomonas aeruginosa [28] = assay: Antibacterial activity against Pseudomonas aeruginosa ATCC 27853 assessed as inhibition of bacterial growth incubated for 18 hrs by CLSI protocol based microdilution assay; format: functional
Escherichia coli [29] = assay: Antibacterial activity against Escherichia coli ATCC 25922 assessed as inhibition of bacterial growth incubated for 18 hrs by CLSI protocol based microdilution assay; format: functional

Row | SMILES | MIC (Enterococcus faecalis) [µM] | MIC (Staphylococcus aureus [1]) [µM] | MIC (Escherichia coli [3]) [µM] | MIC (Pseudomonas aeruginosa [4]) [µM] | Activity (Lipid bilayer [5]) [%] | Activity (Lipid bilayer [6]) [%] | CC50 at 48 h [7] [µM] | MIC (Staphylococcus aureus [8]) [µM] | EC50 (Leishmania amazonensis [10]) [µM] | MIC (Escherichia coli [11]) [µM] | Activity (Lipid bilayer [13]) | Activity (Lipid bilayer [14]) | Activity (Leishmania amazonensis [15]) | MIC (Pseudomonas aeruginosa [16]) [µM] | CC50 at 24 h [17] [µM] | MIC (Escherichia coli [22]) [µM] | MIC (Escherichia coli [26]) [µM] | other results
1 | CC[C@H](C)[C@H](NC(=O)[C@@H](NC(=O)[C@H](CCCNC(=N)N)NC(=O)[C@@H]1CCCN1C(=O)[C@H](CCCCN)NC(=O)[C@H](CCCNC(=N)N)NC(=O)[C@H](Cc1ccccc1)NC(=O)[C@H](Cc1ccccc1)NC(=O)[C@H](Cc1ccccc1)NC(=O)[C@H](CCCCN)NC(=O)[C@@H](NC(=O)[C@H](CCCNC(=N)N)NC(=O)[C@H](CCCCN)NC(=O)[C@H](CCCCN)NC(=O)[C@@H](NC(=O)[C@H](CO)NC(=O)[C@H](CC(N)=O)NC(=O)[C@H](CCCCN)NC(=O)[C@H](CC(C)C)NC(=O)[C@H](CCCCN)NC(=O)[C@H](CCCCN)NC(=O)[C@H](Cc1ccccc1)NC(=O)[C@H](Cc1ccccc1)NC(=O)[C@H](CCCCN)NC(=O)[C@H](CCCCN)NC(=O)[C@H](Cc1ccccc1)NC(=O)[C@H](CCCNC(=N)N)NC(=O)[C@@H](N)CCCCN)C(C)C)C(C)C)C(C)C)C(=O)NCC(=O)N[C@H](C(=O)N[C@H](C(=O)N[C@@H](Cc1ccccc1)C(=O)N1CCC[C@H]1C(N)=O)[C@@H](C)O)C(C)C (H-KRFKKFFKKLKNSVKKRVKFFFRKPRVIGVTFP-NH2) | 7.75 (≈ 32 µg/mL) | 1.94 (≈ 8.01 µg/mL) | 0.48 (≈ 1.98 µg/mL) | 0.94 (≈ 3.88 µg/mL) | 30 | 35 | 34.1 | 3.87 (≈ 16 µg/mL) | 8.86 | 0.48 (≈ 1.98 µg/mL) | Active | Active | Dose-Dependent Effect | 0.97 (≈ 4.01 µg/mL) | 3.51 | – | – | Activity (Cell membrane [2]): Active; Activity (Cell membrane [9]): Active; Activity (Cell membrane [12]): Active
2 | CC[C@H](C)[C@H](NC(=O)[C@@H](NC(=O)[C@H](CCCNC(=N)N)NC(=O)[C@@H]1CCCN1C(=O)[C@H](CCCCN)NC(=O)[C@H](CCCNC(=N)N)NC(=O)[C@H](Cc1ccccc1)NC(=O)[C@H](Cc1ccccc1)NC(=O)[C@H](Cc1ccccc1)NC(=O)[C@H](CCCCN)NC(=O)[C@@H](NC(=O)[C@H](CCCNC(=N)N)NC(=O)[C@H](CCCCN)NC(=O)[C@H](CCCCN)NC(=O)[C@@H](NC(=O)[C@H](CO)NC(=O)[C@H](CC(N)=O)NC(=O)[C@H](CCCCN)NC(=O)[C@H](CC(C)C)NC(=O)[C@H](CCCCN)NC(=O)[C@H](CCCCN)NC(=O)[C@H](Cc1ccccc1)NC(=O)[C@H](Cc1ccccc1)NC(=O)[C@H](CCCCN)NC(=O)[C@H](CCCCN)NC(=O)[C@H](Cc1ccccc1)NC(=O)[C@H](CCCNC(=N)N)NC(=O)[C@@H](N)CCCCN)C(C)C)C(C)C)C(C)C)C(=O)NCC(=O)N[C@H](C(=O)N[C@H](C(=O)N[C@@H](Cc1ccccc1)C(=O)N1CCC[C@H]1C(=O)N[C@@H](Cc1ccccc1)C(N)=O)[C@@H](C)O)C(C)C (H-KRFKKFFKKLKNSVKKRVKFFFRKPRVIGVTFPF-NH2) | 7.48 (≈ 32 µg/mL) | 1.87 (≈ 8 µg/mL) | 0.94 (≈ 4.02 µg/mL) | 4 (≈ 17.1 µg/mL) | 60 | 60 | 29.4 | 3.74 (≈ 16 µg/mL) | 6.74 | 0.93 (≈ 3.98 µg/mL) | Active | Active | Dose-Dependent Effect | 1.87 (≈ 8 µg/mL) | 2.14 | – | – | Activity (Cell membrane [18]): Active; Activity (Cell membrane [19]): Active; Activity (Cell membrane [20]): Active; Activity (Cell membrane [21]): Active
3 | CC[C@H](C)[C@H](NC(=O)[C@@H](NC(=O)[C@H](CCCNC(=N)N)NC(=O)[C@@H]1CCCN1C(=O)[C@H](CCCCN)NC(=O)[C@H](CCCNC(=N)N)NC(=O)[C@H](Cc1ccccc1)NC(=O)[C@H](Cc1ccccc1)NC(=O)[C@H](CCCCN)NC(=O)[C@H](CCCCN)NC(=O)[C@@H](NC(=O)[C@H](CCCNC(=N)N)NC(=O)[C@H](CCCCN)NC(=O)[C@H](CCCCN)NC(=O)[C@@H](NC(=O)[C@H](CO)NC(=O)[C@H](CC(N)=O)NC(=O)[C@H](CCCCN)NC(=O)[C@H](CC(C)C)NC(=O)[C@H](CCCCN)NC(=O)[C@H](CCCCN)NC(=O)[C@H](Cc1ccccc1)NC(=O)[C@H](Cc1ccccc1)NC(=O)[C@H](CCCCN)NC(=O)[C@H](CCCCN)NC(=O)[C@H](Cc1ccccc1)NC(=O)[C@H](CCCNC(=N)N)NC(=O)[C@@H](N)CCCCN)C(C)C)C(C)C)C(C)C)C(=O)NCC(=O)N[C@H](C(=O)N[C@H](C(=O)N[C@@H](Cc1ccccc1)C(=O)N1CCC[C@H]1C(=O)N[C@@H](Cc1ccccc1)C(N)=O)[C@@H](C)O)C(C)C (H-KRFKKFFKKLKNSVKKRVKKFFRKPRVIGVTFPF-NH2) | 7.51 (≈ 32 µg/mL) | 7.51 (≈ 32 µg/mL) | 0.94 (≈ 4 µg/mL) | 0.94 (≈ 4 µg/mL) | 35 | 50 | 21.7 | 7.51 (≈ 32 µg/mL) | 4.9 | 0.48 (≈ 2.04 µg/mL) | Active | Active | Dose-Dependent Effect | 0.94 (≈ 4 µg/mL) | 1.6 | 8 (≈ 34.1 µg/mL) | 8 (≈ 34.1 µg/mL) | Activity (Cell membrane [23]): Active; Activity (Cell membrane [24]): inactive; Activity (Leishmania amazonensis [25]): 1.96
4 | C[C@@H]1[C@H](O)[C@@H](C)/C=C/C=C/C=C/C=C/C=C/C=C/C=C/[C@H](O[C@@H]2O[C@H](C)[C@@H](O)[C@H](N)[C@@H]2O)C[C@@H]2O[C@](O)(C[C@@H](O)C[C@@H](O)[C@H](O)CC[C@@H](O)C[C@@H](O)CC(=O)O[C@H]1C)C[C@H](O)[C@H]2C(=O)O [AMPHOTERICIN B] | – | – | – | – | – | – | – | – | 0.024 | – | – | – | – | – | – | – | – | Ratio (Leishmania amazonensis [27]): 5.07
5 | C[C@H]1C(=O)O[C@@H]2CCN3CC=C(COC(=O)[C@](C)(O)[C@]1(C)O)[C@H]23 [MONOCROTALINE] | – | – | – | – | – | – | – | – | – | – | – | – | – | – | – | 4 (≈ 1.3 µg/mL) | 16 (≈ 5.21 µg/mL) | MIC (Pseudomonas aeruginosa [28]): 1.56 µM (≈ 0.508 µg/mL); MIC (Escherichia coli [29]): 0.78 µM (≈ 0.254 µg/mL)
